The values below are quoted from earlier work in patent US7368472B2, “1,2,4-Triaminobenzene derivatives useful for treating disorders of the central nervous system” (priority 2002, dated 2008).

In data set [1] the test system is K(+) current in neuronal cells.
Data set [2] relates to electrically induced seizures, seizures induced chemically by pentylenetetrazole, picrotoxin and NMDA, DBA/2 mouse. Particulars: oral and intraperitoneal administration, rats and mice.
In data set [3] the test system is kainic acid-induced status epilepticus. Particulars: rat.
Data set [4] has as its system animal models of anxiety-like behaviour. Particulars: in vivo.
The subject of data set [5] is incidence of seizures in epileptic patients.
Another data set deals with hippocampal kindling. Particulars: rat.
Data set [6] relates to amygdala kindling model of complex partial seizures. Particulars: in vivo.

As to `CCOC(=O)Nc1ccc(NCc2ccc(F)cc2)cc1N` [Retigabine, N-(2-amino-4-(4-fluorobenzylamino)-phenyl) carbamic acid ethyl ester], the “activation of K(+) current” value in data set [1] is on record as “activate a K(+) current”. The “activity in anticonvulsant tests” value in data set [2] is on record as “active”. Moreover, the “neuroprotection after status epilepticus” value in data set [3] is “prevent limbic neurodegeneration and the expression of markers of apoptosis”. For the same compound, the “activity in models of anxiety-like behaviour” value in data set [4] is “active”. Moreover, in data set [5], the “reduction of seizure incidence in clinical trials” value is listed as “effectiveness in reducing the incidence of seizures”. Further, the “progression of hippocampal kindling” value in the data set with hippocampal kindling is on record as “delay the progression of hippocampal kindling”. The “activity in amygdala kindling model” value in data set [6] is recorded as “active”.
